Test results taken from patent US8455475B2 (Gruenenthal GmbH, priority 2009, dated 2013).
Counter-ions that a name gives are not always drawn.

Legend:
[1] = biological target: T1, rat B1R (bradykinin receptor 1) (Rattus norvegicus, UniProt P97583); assay: FLIPR Ca2+ assay (Fluo-4) on CHO K1 cells stably transfected with the B1R gene of the rat (rB1R cells): % inhibition at 10 μM / IC50, agonist Des-Arg9-bradykinin; type: cell-based; conditions: CHO-K1, rat B1R
T1 construct: expressed in transfected cells; host or cells: CHO K1 cells
T1 sequence (P97583 1-337): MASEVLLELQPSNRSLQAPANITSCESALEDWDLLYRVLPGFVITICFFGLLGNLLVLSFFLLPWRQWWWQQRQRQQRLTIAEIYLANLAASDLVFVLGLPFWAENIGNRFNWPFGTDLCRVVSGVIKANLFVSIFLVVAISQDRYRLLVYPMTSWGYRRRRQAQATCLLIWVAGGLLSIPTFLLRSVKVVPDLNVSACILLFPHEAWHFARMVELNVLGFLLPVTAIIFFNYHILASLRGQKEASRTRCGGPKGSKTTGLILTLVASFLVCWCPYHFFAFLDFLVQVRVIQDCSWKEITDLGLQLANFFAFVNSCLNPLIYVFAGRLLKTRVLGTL
In short: (§1)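 Using a two-addition FLIPR protocol, compound (10 μM for % values; concentration series for IC50) was preincubated 10–20 min with Fluo-4-loaded B1R-expressing CHO K1 cells before EC80 agonist challenge. Suppression of Ca2+ inflow, read as peak fluorescence, is expressed relative to maximum achievable inhibition; duplicate/triplicate, ≥2 independent experiments.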

[2] = biological target: T2, human B1R (bradykinin receptor 1) (Homo sapiens, UniProt P46663); assay: FLIPR Ca2+ assay (Fluo-4) on CHO K1 cells stably transfected with the human B1R gene (hB1R cells): % inhibition at 10 μM / IC50, agonist Lys-Des-Arg9-bradykinin; type: cell-based; conditions: CHO-K1, human B1R
T2 construct: expressed in transfected cells; host or cells: CHO K1 cells
T2 sequence (P46663 1-353): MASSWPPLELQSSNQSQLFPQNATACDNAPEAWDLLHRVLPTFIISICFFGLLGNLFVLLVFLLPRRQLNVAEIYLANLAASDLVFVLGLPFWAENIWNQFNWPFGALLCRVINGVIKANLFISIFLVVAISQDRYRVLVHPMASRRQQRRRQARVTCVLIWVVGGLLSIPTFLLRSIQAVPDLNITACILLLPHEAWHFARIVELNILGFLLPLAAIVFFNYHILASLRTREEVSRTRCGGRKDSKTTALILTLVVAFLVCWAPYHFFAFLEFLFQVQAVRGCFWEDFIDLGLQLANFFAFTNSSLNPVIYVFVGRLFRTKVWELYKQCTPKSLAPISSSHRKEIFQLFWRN
In short: as §1

Structure (SMILES)	inhibition at 10 µM [1] [%]	inhibition at 10 µM [2] [%]
O=C(N[C@@H]1CCc2ccc(C(=O)N3CCC4(CCC(N5CCn6ncnc6C5)CC4)CC3)cc21)c1ccccc1Cl [Example H-55, 2-Chloro-N-[(1R)-6-[9-(5,6,7,8-tetrahydro-[1,2,4]triazolo[1,5-a]pyrazin-7-yl)-3-azaspiro[5.5]undecane-3-carbonyl]-2,3-dihydro-1H-inden-1-yl]-benzamide]	87	42
COc1ccc2cc(C(=O)N[C@@H]3CCc4ccc(C(=O)N5CCC6(CCN(c7ccncc7)CC6)C5)cc43)ccc2c1 [Example H-56, 6-Methoxy-N-[(1R)-6-(8-pyridin-4-yl-3,8-diazaspiro[4.5]decane-3-carbonyl)-2,3-dihydro-1H-inden-1-yl]-naphthalene-2-carboxylic acid amide]	68	94
O=C(N[C@@H]1CCOc2ccc(C(=O)N3CCC4(CC3)CCN(c3ccncc3)C4)cc21)c1ccccc1Cl [Example H-57, 2-Chloro-N-[(4R)-6-(3-pyridin-4-yl-3,8-diazaspiro[4.5]decane-8-carbonyl)-3,4-dihydro-2H-chromen-4-yl]-benzamide]	105	99
O=C(N[C@@H]1CCOc2ccc(C(=O)N3CCC4(CC3)CCN(c3ccncc3)CC4)cc21)c1ccccc1Cl [Example H-58, 2-Chloro-N-[(4R)-6-(9-pyridin-4-yl-3,9-diazaspiro[5.5]undecane-3-carbonyl)-3,4-dihydro-2H-chromen-4-yl]-benzamide]	106	99
Cc1cc2c(cc1C(=O)N1CCC3(CC1)CCN(c1ccncc1)C3)[C@H](NC(=O)c1ccccc1Cl)CC2 [Example H-59, 2-Chloro-N-[(1R)-5-methyl-6-(3-pyridin-4-yl-3,8-diazaspiro[4.5]decane-8-carbonyl)-2,3-dihydro-1H-inden-1-yl]-benzamide]	105	99
COc1ccc(C(=O)N[C@@H]2CCc3ccc(C(=O)N4CCC5(CC4)CCN(c4ccncc4)C5)cc32)c(Cl)c1 [Example H-60, 2-Chloro-4-methoxy-N-[(1R)-6-(3-pyridin-4-yl-3,8-diazaspiro[4.5]decane-8-carbonyl)-2,3-dihydro-1H-inden-1-yl]-benzamide]	101	82
COc1ccc(C(=O)N[C@@H]2CCc3ccc(C(=O)N4CCC5(CCN(c6ccncc6)CC5)C4)cc32)c(C)c1 [Example H-61, 4-Methoxy-2-methyl-N-[(1R)-6-(8-pyridin-4-yl-3,8-diazaspiro[4.5]decane-3-carbonyl)-2,3-dihydro-1H-inden-1-yl]-benzamide]	104	100
O=C(N[C@@H]1CCc2ccc(C(=O)N3CCC4(CCC(C(=O)N[C@@H]5CN6CCC5CC6)CC4)CC3)cc21)c1ccccc1Cl [Example H-62, N-[(5S)-1-Azabicyclo[2.2.2]octan-5-yl]-3-[(3R)-3-[(2-chloro-benzoyl)amino]-2,3-dihydro-1H-indene-5-carbonyl]-3-azaspiro[5.5]undecane-9-carboxylic acid amide]	102	30
COc1ccc(C(=O)N[C@@H]2CCc3ccc(C(=O)N4CCC5(CCN(c6ccncc6)CC5)C4)cc32)c(Cl)c1 [Example H-63, 2-Chloro-4-methoxy-N-[(1R)-6-(8-pyridin-4-yl-3,8-diazaspiro[4.5]decane-3-carbonyl)-2,3-dihydro-1H-inden-1-yl]-benzamide]	104	100
O=C(N[C@@H]1CCc2cc(F)c(C(=O)N3CCC4(CCN(c5ccncc5)CC4)C3)cc21)c1ccccc1Cl [Example H-64, 2-Chloro-N-[(1R)-5-fluoro-6-(8-pyridin-4-yl-3,8-diazaspiro[4.5]decane-3-carbonyl)-2,3-dihydro-1H-inden-1-yl]-benzamide hydrochloride]	105	100
O=C(N[C@@H]1CCOc2cc(F)c(C(=O)N3CCC4(CCN(c5ccncc5)CC4)C3)cc21)c1ccccc1Cl [Example H-65, 2-Chloro-N-[(4R)-7-fluoro-6-(8-pyridin-4-yl-3,8-diazaspiro[4.5]decane-3-carbonyl)-3,4-dihydro-2H-chromen-4-yl]-benzamide]	105	100
Cc1cc2c(cc1C(=O)N1CCC3(CC1)CCN(c1ccncc1)CC3)[C@H](NC(=O)c1ccccc1Cl)CC2 [Example H-66, 2-Chloro-N-[(1R)-5-methyl-6-(9-pyridin-4-yl-3,9-diazaspiro[5.5]undecane-3-carbonyl)-2,3-dihydro-1H-inden-1-yl]-benzamide]	102	99
O=C(N[C@@H]1CCOc2ccc(C(=O)N3CCC4(CCN(c5ccncc5)CC4)C3)cc21)c1ccccc1Cl [Example H-67, 2-Chloro-N-[(4R)-6-(8-pyridin-4-yl-3,8-diazaspiro[4.5]decane-3-carbonyl)-3,4-dihydro-2H-chromen-4-yl]-benzamide]	102	100
COc1ccc2cc(C(=O)N[C@@H]3CCc4ccc(C(=O)N5CCC6(CC5)CCN(c5ccncc5)C6)cc43)ccc2c1 [Example H-68, 6-Methoxy-N-[(1R)-6-(3-pyridin-4-yl-3,8-diazaspiro[4.5]decane-8-carbonyl)-2,3-dihydro-1H-inden-1-yl]-naphthalene-2-carboxylic acid amid]	93	96
O=C(N[C@@H]1CCCc2ccc(C(=O)N3CCCC4(CCCN(c5ccncc5)C4)C3)cc21)c1ccccc1Cl (stereo partly shown) [Example H-69]	102	98
O=C(N[C@@H]1CCCc2ccc(C(=O)N3CCCC4(CCN(c5ccncc5)C4)C3)cc21)c1ccccc1Cl (stereo partly drawn) [Example H-70, 2-Chloro-N-[(1R)-7-(2-pyridin-4-yl-2,9-diazaspiro[4.5]decane-9-carbonyl]-1,2,3,4-tetrahydro-naphthalen-1-yl]-benzamide]	103	90
O=C(N[C@@H]1CCCc2ccc(C(=O)N3CC4(CCN(c5ccncc5)CC4)C3)cc21)c1ccccc1Cl [Example H-71, 2-Chloro-N-[(1R)-7-(7-pyridin-4-yl-2,7-diazaspiro[3.5]nonane-2-carbonyl)-1,2,3,4-tetrahydro-naphthalen-1-yl]-benzamide]	103	100
O=C(N[C@@H]1CCCc2ccc(C(=O)N3CCC4(CC3)CCN(c3ccncc3)C4)cc21)c1ccccc1Cl [Example H-72]	104	100
O=C(N[C@@H]1CCOc2c(F)cc(C(=O)N3CCC4(CCN(c5ccncc5)CC4)C3)cc21)c1ccccc1Cl [Example H-73, 2-Chloro-N-[(4R)-8-fluoro-6-(8-pyridin-4-yl-3,8-diazaspiro[4.5]decane-3-carbonyl)-3,4-dihydro-2H-chromen-4-yl]-benzamide]	103	100
Cc1cc(OC(F)(F)F)ccc1C(=O)N[C@@H]1CCc2ccc(C(=O)N3CCC4(CCN(c5ccncc5)CC4)C3)cc21 [Example H-74, 2-Methyl-N-[(1R)-6-(8-pyridin-4-yl-3,8-diazaspiro[4.5]decane-3-carbonyl)-2,3-dihydro-1H-inden-1-yl]-4-(trifluoromethyloxy)-benzamide]	100	94
